Reference: patent US20240269088A1, “PAIN RELIEF PATCH” (CS MEDICA A/S, priority 2021, published 2024)

Tested on: pain
Assay: Comparison of skin patches formulated with type A versus type B crystalline CBD
Type: in vivo
Description: The “potency” and/or “activity” of “type A” CBD can e.g. be determined by comparing the effect using essentially identical compositions with the exception of the type and/or quantity of CBD used. Said potency, activity and or effect can e.g. be determined essentially as disclosed in the Examples by replacing the placebo with the “B-type” CBD comprising formulation. Alternatively, the potency can be determined in the quantity of CBD needed to provide the same effect, such as pain relief.
Two different sets of skin patches are provided according to Example 1, e.g. formulation A or F, the only difference being that the crystalline CBD used in the formulation is either of type A (needle-like crystals; FIG. 9) or type B (bunch/cluster-like; FIG. 10).
Type A crystalline CBD is sourced from Enecta, while type B CBD is sourced from Pharma Hemp.
Such tests can e.g. be performed, mutatis mutandis, according to Examples 1-4.

For C=C(C)[C@@H]1CCC(C)=C[C@H]1c1c(O)cc(CCCCC)cc1O [type A CBD, Cannabidiol], the “Potency of CBD with needle-like crystal structure compared with CBD of crystal structure B” value (observed by the inventors, see Example 6) was “significantly more potent” and the “Activity of skin patch with type A CBD compared with comparable skin patch with type B CBD” value (skin patches according to Example 1, e.g. formulation A or F, only the crystalline CBD differs) was “significantly more active”.
